Legend:
[1] = test system: PR8 IAV HA transport to the plasma membrane; assay type: cell-based; conditions: NTZ 5 μg/ml after adsorption, A549 cells, PR8 5 PFU/cell, 6 h p.i.
[2] = target: T1, recombinant human PDIA3 (Homo sapiens, UniProt P30101); experiment: Disulfide reductase activity assay with Di-E-GSSG substrate; assay type: biochemical
T1 construct: full-length recombinant human PDIA3 (rhPDIA3, Abcam); purchased Abcam
T1 sequence (P30101 25-505): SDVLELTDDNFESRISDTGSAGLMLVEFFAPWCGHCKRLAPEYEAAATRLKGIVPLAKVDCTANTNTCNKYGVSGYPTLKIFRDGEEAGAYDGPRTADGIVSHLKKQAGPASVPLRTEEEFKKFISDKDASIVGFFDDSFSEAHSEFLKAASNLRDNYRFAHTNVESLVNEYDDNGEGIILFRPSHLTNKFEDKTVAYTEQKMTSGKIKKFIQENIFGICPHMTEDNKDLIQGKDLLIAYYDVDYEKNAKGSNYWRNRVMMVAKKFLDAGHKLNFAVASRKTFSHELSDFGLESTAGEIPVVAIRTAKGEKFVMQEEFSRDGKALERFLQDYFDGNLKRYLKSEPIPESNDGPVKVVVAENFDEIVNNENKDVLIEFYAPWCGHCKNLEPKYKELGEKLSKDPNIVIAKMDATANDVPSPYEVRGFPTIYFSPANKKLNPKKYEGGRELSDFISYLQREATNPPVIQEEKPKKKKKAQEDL
Experimental: PDIA3 activity was determined by enzyme-dependent disulfide reduction assay. The disulfide reductase activity was tested in vitro using dieosin glutathione disulfide (Di-E-GSSG) as substrate. Recombinant human PDIA3 (rhPDIA3) (2 nM), pre-incubated with different concentrations of TIZ or control diluent (DMSO) for 10 min. at room temperature, was added to Di-E-GSSG (150 nM) in the presence of 5 μM DTT (arrow). PDIA3 reductase activity cleaves the S—S bond of Di-E-GSSG resulting in the release of fluorescent 2-eosin-GSH (EGSH). The increase in fluorescence was monitored at λ=545 nm with excitation at λ=525 nm, and expressed as relative fluorescence units (RFU).
FIG. 4A-B show effect of TIZ on PDIA3 and PDIA1 disulfide reductase activity. Effect of TIZ (5 μg/ml) on PDIA3 and PDIA1 (PDI) activities were measured by Di-E-GSSG assay using the same concentration (20 nM) of PDIA3 or PDIA1.
Disulfide reductase (DR) activity of PDIA3 or protein disulfide isomerase (PDI) was monitored by sensitive fluorescent assay using dieosin glutathione disulfide (Di-E-GSSG) (Cayman Chemical) as a substrate. DR activity assay was performed in a reaction buffer (0.1 M potassium phosphate, pH 7.0; 2 mM EDTA) by adding 2 or 20 nM of full-length recombinant human PDIA3 (rhPDIA3, Abcam) or PDI (rhPDIA1, R&D Systems) to different concentrations of Di-E-GSSG in the presence of 5 μM DTT. The reductase activity of disulfide isomerases cleaves the S—S bond of Di-E-GSSG resulting in the release of fluorescent 2-eosin-GSH (EGSH). To test the effect of TIZ on PDIA3 and PDI reductase activity, recombinant human PDIA3 or PDIA1 were previously incubated for 10 min at room temperature with different concentrations of TIZ or control diluent (DMSO) in the reaction buffer, unless differently specified. The increase in fluorescence was monitored at λ=545 nm with excitation at λ=525 nm at 25° C. with continuous stirring, and expressed as relative fluorescence units (RFU).
Thiazolides inhibit PDIA3 disulfide isomerase activity. To investigate whether thiazolides may directly affect PDIA3 disulfide-isomerase activity, we performed a fluorescence-based reductase in vitro assay using purified full-length recombinant human PDIA3 and oxidized glutathione coupled to dieosin (Di-E-GSSG) as a substrate. NTZ's circulating active metabolite, TIZ, was utilized for these studies.
Recombinant human PDIA3 (rhPDIA3) (2 nM) was pre-incubated with different concentrations of TIZ or control diluent (DMSO) for 10 min. at room temperature. […] PDIA3 reductase activity cleaves the S—S bond of Di-E-GSSG resulting in the release of fluorescent 2-eosin-GSH (EGSH), that is measured in function of time by fluorimetry, as described in Materials and Methods. […]

[3] = test system: PDIA3-HA protein-protein interaction; assay type: cell-based, canine

Compound | plasma membrane-incorporated HA (HA transport to the plasma membrane) [1] | PDIA3 disulfide-isomerase activity in an in vitro assay (conclusion statement) [2] | HA-PDIA3 interaction detected by PLA [3] | effect on PDIA3 versus human PDIA1 reductase activity ([2]; TIZ 5 μg/ml, PDIA3 or PDIA1 20 nM, preliminary experiment) | lowest TIZ concentration tested at which inhibitory activity was observed ([2]; rhPDIA3 2 nM, Di-E-GSSG 150 nM, 5 μM DTT) | PDIA3 disulfide reductase activity (time-course of EGSH fluorescence) ([2]; rhPDIA3 2 nM, pre-incubated 10 min with different TIZ concentrations, Di-E-GSSG 150 nM, 5 μM DTT)
CC(=O)Oc1ccccc1C(=O)Nc1ncc([N+](=O)[O-])s1 [NTZ, nitazoxanide] | inhibits PR8 IAV HA transport to the plasma membrane | directly inhibits PDIA3 disulfide-isomerase activity | PDIA3 strongly interacts with HA forming large spots |  |  | 
O=C(Nc1ncc([N+](=O)[O-])s1)c1ccccc1O [TIZ, tizoxanide] |  |  |  | preferentially inhibits PDIA3 reductase activity | 1 µg/mL | inhibits PDIA3 activity in a dose-dependent manner
